Tested on: DIO mice
Experiment: Chronic DIO Mouse: food intake, body weight, plasma insulin
Type: in vivo
Details: for Mean Body Weight (Std Err) / Plasma Insulin (Std Err): DIO mice; for Plasma Insulin (Std Err): chronic study; for Mean Daily Food Intake: chronic DIO mouse, (Std Err)
Procedure: Male 14-20-week old diet-induced obese mice are ordered from Taconic. Mice were started on a 60% fat diet (D12492, Research Diets, New Brunswick, N.J.) at 6 weeks of age. Mice are single-housed.
DIO mice received vehicle, test compound (@ 1, 3, 10, and 30 mg/kg) daily for 26 days. At the end of the experiment, the mice were euthanized and blood and tissues were collected.
Body weight and food weight (food intake) were monitored daily for days 1-5 and twice weekly thereafter.
Blood glucose was measured from the tail vein with a Lifescan glucometer. Plasma insulin was measured with an ELISA or HTRF kit (Cisbio). Plasma parameters were measured with an Olympus clinical chemistry analyzer.

In the case of `O=C(O)c1cccc(CN2CCC(n3c(C4CC4)nc4ccc(C(c5ccc(Cl)cc5)c5ccc(Cl)cc5)cc43)CC2)c1` [Example 148], the “Mean Body Weight (Std Err)” value (3 mg/kg daily, Day 4) is reported as 41.42 (0.44) Grams, the “Mean Body Weight (Std Err)” value (3 mg/kg daily, Day 5) is reported as 41.3 (0.36) Grams and the “Mean Body Weight (Std Err)” value (3 mg/kg daily, Day 8) is reported as 39.78 (0.29) Grams. The “Mean Body Weight (Std Err)” value (3 mg/kg daily, Day 11) was 39.1 (0.41) Grams, the “Mean Body Weight (Std Err)” value (3 mg/kg daily, Day 15) was 40.43 (0.40) Grams and the “Mean Body Weight (Std Err)” value (3 mg/kg daily, Day 18) was 39.84 (0.53) Grams. For the same compound, the “Mean Body Weight (Std Err)” value (3 mg/kg daily, Day 24) was 40.48 (0.48) Grams, the “Plasma Insulin (Std Err)” value (3 mg/kg daily) was 4.74 (0.83) ng/mL and the “Mean Body Weight (Std Err)” value (10 mg/kg daily, Day 0) was 42.09 (0.85) Grams. For the same compound, the “Mean Body Weight (Std Err)” value (10 mg/kg daily, Day 1) was 42.69 (0.74) Grams, the “Mean Body Weight (Std Err)” value (10 mg/kg daily, Day 2) was 40.46 (0.66) Grams and the “Mean Body Weight (Std Err)” value (10 mg/kg daily, Day 3) was 39.85 (0.68) Grams. For the same compound, the “Mean Body Weight (Std Err)” value (10 mg/kg daily, Day 4) was 39.44 (0.70) Grams, the “Mean Body Weight (Std Err)” value (10 mg/kg daily, Day 5) was 38.78 (0.70) Grams and the “Mean Body Weight (Std Err)” value (10 mg/kg daily, Day 8) was 37.4 (0.67) Grams. For the same compound, the “Mean Body Weight (Std Err)” value (10 mg/kg daily, Day 11) was 36.99 (0.78) Grams, the “Mean Body Weight (Std Err)” value (10 mg/kg daily, Day 15) was 37.33 (0.84) Grams and the “Mean Body Weight (Std Err)” value (10 mg/kg daily, Day 18) was 37.02 (0.88) Grams. The “Mean Body Weight (Std Err)” value (10 mg/kg daily, Day 24) was 36.42 (1.25) Grams, the “Plasma Insulin (Std Err)” value (10 mg/kg daily) was 2.20 (0.13) ng/mL and the “Mean Body Weight (Std Err)” value (30 mg/kg daily, Day 0) was 42.46 (0.58) Grams. The “Mean Body Weight (Std Err)” value (30 mg/kg daily, Day 1) was 43.13 (0.69) Grams, the “Mean Body Weight (Std Err)” value (30 mg/kg daily, Day 2) was 39.64 (0.68) Grams and the “Mean Body Weight (Std Err)” value (30 mg/kg daily, Day 3) was 38.53 (0.66) Grams. For the same compound, the “Mean Body Weight (Std Err)” value (30 mg/kg daily, Day 4) was 37.46 (0.75) Grams, the “Mean Body Weight (Std Err)” value (30 mg/kg daily, Day 5) was 36.67 (0.75) Grams and the “Mean Body Weight (Std Err)” value (30 mg/kg daily, Day 8) was 34.95 (0.78) Grams. For the same compound, the “Mean Body Weight (Std Err)” value (30 mg/kg daily, Day 11) was 33.79 (0.87) Grams, the “Mean Body Weight (Std Err)” value (30 mg/kg daily, Day 15) was 34.19 (0.64) Grams and the “Mean Body Weight (Std Err)” value (30 mg/kg daily, Day 18) was 32.47 (0.92) Grams. For the same compound, the “Mean Body Weight (Std Err)” value (30 mg/kg daily, Day 24) was 32.86 (0.91) Grams, the “Plasma Insulin (Std Err)” value (30 mg/kg daily) was 2.85 (0.27) ng/mL and the “Mean Daily Food Intake” value (1 mg/kg daily, Day 2) was 2.3 (0.1) Grams. For the same compound, the “Mean Daily Food Intake” value (1 mg/kg daily, Day 3) was 2.3 (0.1) Grams, the “Mean Daily Food Intake” value (1 mg/kg daily, Day 4) was 2.2 (0.1) Grams and the “Mean Daily Food Intake” value (1 mg/kg daily, Day 5) was 2.4 (0.1) Grams. The “Mean Daily Food Intake” value (1 mg/kg daily, Day 8) was 2.1 (0.1) Grams, the “Mean Daily Food Intake” value (1 mg/kg daily, Day 11) was 2.3 (0.1) Grams and the “Mean Daily Food Intake” value (1 mg/kg daily, Day 15) was 2.4 (0.1) Grams. The “Mean Daily Food Intake” value (1 mg/kg daily, Day 18) was 1.6 (0.3) Grams, the “Mean Daily Food Intake” value (1 mg/kg daily, Day 24) was 2.1 (0.2) Grams and the “Mean Daily Food Intake” value (3 mg/kg daily, Day 2) was 2.0 (0.2) Grams. For the same compound, the “Mean Daily Food Intake” value (3 mg/kg daily, Day 3) was 2.0 (0.1) Grams, the “Mean Daily Food Intake” value (3 mg/kg daily, Day 4) was 1.9 (0.2) Grams and the “Mean Daily Food Intake” value (3 mg/kg daily, Day 5) was 1.8 (0.2) Grams. For the same compound, the “Mean Daily Food Intake” value (3 mg/kg daily, Day 8) was 1.7 (0.1) Grams, the “Mean Daily Food Intake” value (3 mg/kg daily, Day 11) was 1.8 (0.1) Grams and the “Mean Daily Food Intake” value (3 mg/kg daily, Day 15) was 2.5 (0.1) Grams. For the same compound, the “Mean Daily Food Intake” value (3 mg/kg daily, Day 18) was 2.2 (0.1) Grams, the “Mean Daily Food Intake” value (3 mg/kg daily, Day 24) was 2.2 (0.1) Grams and the “Mean Daily Food Intake” value (10 mg/kg daily, Day 2) was 0.5 (0.1) Grams. The “Mean Daily Food Intake” value (10 mg/kg daily, Day 3) was 0.9 (0.1) Grams, the “Mean Daily Food Intake” value (10 mg/kg daily, Day 4) was 1.7 (0.2) Grams and the “Mean Daily Food Intake” value (10 mg/kg daily, Day 5) was 1.8 (0.2) Grams. The “Mean Daily Food Intake” value (10 mg/kg daily, Day 8) was 1.7 (0.1) Grams, the “Mean Daily Food Intake” value (10 mg/kg daily, Day 11) was 2.0 (0.1) Grams and the “Mean Daily Food Intake” value (10 mg/kg daily, Day 15) was 2.3 (0.1) Grams. For the same compound, the “Mean Daily Food Intake” value (10 mg/kg daily, Day 18) was 2.3 (0.1) Grams, the “Mean Daily Food Intake” value (10 mg/kg daily, Day 24) was 2.2 (0.2) Grams and the “Mean Daily Food Intake” value (30 mg/kg daily, Day 2) was 0.1 (0.1) Grams. The “Mean Daily Food Intake” value (30 mg/kg daily, Day 3) was 0.5 (0.1) Grams, the “Mean Daily Food Intake” value (30 mg/kg daily, Day 4) was 0.7 (0.1) Grams and the “Mean Daily Food Intake” value (30 mg/kg daily, Day 5) was 1.0 (0.2) Grams. For the same compound, the “Mean Daily Food Intake” value (30 mg/kg daily, Day 8) was 1.3 (0.2) Grams, the “Mean Daily Food Intake” value (30 mg/kg daily, Day 11) was 1.7 (0.2) Grams and the “Mean Daily Food Intake” value (30 mg/kg daily, Day 15) was 2.3 (0.1) Grams. The “Mean Daily Food Intake” value (30 mg/kg daily, Day 18) was 1.8 (0.2) Grams and the “Mean Daily Food Intake” value (30 mg/kg daily, Day 24) was 2.4 (0.1) Grams.

Reference: patent US20190031618A1, “BENZIMIDAZOLE DERIVATIVES USEFUL AS CB-1 INVERSE AGONISTS” (Janssen Pharmaceutica NV, priority 2015, published 2019)
